# Patent publication US9708314B2, “Heterocyclic amide compound” (NISSAN CHEMICAL INDUSTRIES, LTD., priority 2013, dated 2017)
# Columns and labels:
# Assay type in all cases: in vivo
# [1] = test system: Scirpus juncoides; experiment: Test Example 1: herbicidal activity, application before weed generation in submerged conditions; details: Application herbicide amount 320 g/ha; Seventeenth Table
# Summary of the method: (§1)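 Pre-emergence application to water surface of submerged pots (4 cm depth, alluvial soil) on sowing day, with 2.5-leaf rice transplanted; emulsion diluted to g/ha rates. Grown in greenhouse at 25–30 °C; 0–5 herbicidal/crop-effect score after three weeks.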
# [2] = test system: Echinochloa oryzacola Vasing.; experiment: as above; details: Application herbicide amount 320 g/ha; Seventeenth Table
# Summary of the method: as §1
# [3] = test system: Monochoria vaginalis; experiment: as above; details: Application herbicide amount 320 g/ha; Seventeenth Table
# Summary of the method: as §1
# [4] = test system: Leptochloa chinensis; experiment: Test Example 3: herbicidal effect by application to foliage (Wagner pot, water depth 0.1-0.5 cm); details: Nineteenth Table; application to foliage; application herbicide amount 320 g/ha
# Summary of the method: (§2)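 Seeds were sown in alluvial soil in Wagner pots, grown for 14 days at 25–30 °C, then sprayed uniformly on foliage with the emulsified compound diluted to a given rate per hectare. Injury was graded three weeks after treatment from 0 (≤5%) to 5 (≥90%).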
# [5] = test system: Cyperus difformis; experiment: as above; details: Nineteenth Table; application to foliage; application herbicide amount 320 g/ha
# Summary of the method: as §2
# [6] = test system: Echinochloa crus-galli var. crus-galli; experiment: as above; details: Nineteenth Table; application to foliage; application herbicide amount 320 g/ha
# Summary of the method: as §2
SMILES,B: Scirpus juncoides (herbicidal effect grade) [1],A: Echinochloa oryzicola Vasing. (herbicidal effect grade) [2],C: Monochoria vaginalis (herbicidal effect grade) [3],D (herbicidal effect grade) [4],E (herbicidal effect grade) [5],H (herbicidal effect grade) [6]
Cc1nnc(NC(=O)c2ccc(C(F)(F)F)n3c(N(C)CCC#N)nnc23)o1 [1-153],3 (Herbicidal ratio of 40% or more and less than 70%),3 (Herbicidal ratio of 40% or more and less than 70%),4 (Herbicidal ratio of 70% or more and less than 90%),5 (Herbicidal ratio of 90% or more (almost completely withered)),3 (Herbicidal ratio of 40% or more and less than 70%),5 (Herbicidal ratio of 90% or more (almost completely withered))
CCC(CC)c1nnc2c(C(=O)Nc3nnnn3C)ccc(C(F)(F)F)n12 [2-006],5 (Herbicidal ratio of 90% or more (almost completely withered)),5 (Herbicidal ratio of 90% or more (almost completely withered)),5 (Herbicidal ratio of 90% or more (almost completely withered)),5 (Herbicidal ratio of 90% or more (almost completely withered)),5 (Herbicidal ratio of 90% or more (almost completely withered)),5 (Herbicidal ratio of 90% or more (almost completely withered))
CSCCNc1nnc2c(C(=O)Nc3nnc(C)o3)ccc(C(F)(F)F)n12 [1-130],0 (Herbicidal ratio of 5% or less (almost no effect)),1 (Herbicidal ratio of 5% or more and less than 20%),0 (Herbicidal ratio of 5% or less (almost no effect)),4 (Herbicidal ratio of 70% or more and less than 90%),2 (Herbicidal ratio of 20% or more and less than 40%),5 (Herbicidal ratio of 90% or more (almost completely withered))
Cc1nnc(NC(=O)c2ccc(C(F)(F)F)n3c(-c4cc5ccccc5n4C)nnc23)o1 [1-059],3 (Herbicidal ratio of 40% or more and less than 70%),2 (Herbicidal ratio of 20% or more and less than 40%),2 (Herbicidal ratio of 20% or more and less than 40%),3 (Herbicidal ratio of 40% or more and less than 70%),3 (Herbicidal ratio of 40% or more and less than 70%),0 (Herbicidal ratio of 5% or less (almost no effect))
Cn1nnnc1NC(=O)c1ccc(C(F)(F)F)n2c(C3CCOC3)nnc12 (stereo not drawn) [2-022],5 (Herbicidal ratio of 90% or more (almost completely withered)),5 (Herbicidal ratio of 90% or more (almost completely withered)),5 (Herbicidal ratio of 90% or more (almost completely withered)),5 (Herbicidal ratio of 90% or more (almost completely withered)),5 (Herbicidal ratio of 90% or more (almost completely withered)),5 (Herbicidal ratio of 90% or more (almost completely withered))
CCC(CC)c1nnc2c(C(=O)Nc3nnco3)ccc(C(F)(F)F)n12 [1-145],5 (Herbicidal ratio of 90% or more (almost completely withered)),5 (Herbicidal ratio of 90% or more (almost completely withered)),5 (Herbicidal ratio of 90% or more (almost completely withered)),5 (Herbicidal ratio of 90% or more (almost completely withered)),5 (Herbicidal ratio of 90% or more (almost completely withered)),5 (Herbicidal ratio of 90% or more (almost completely withered))
COCCOC(=O)Cc1nnc2c(C(=O)Nc3nnc(C)o3)ccc(C(F)(F)F)n12 [1-060],4 (Herbicidal ratio of 70% or more and less than 90%),4 (Herbicidal ratio of 70% or more and less than 90%),3 (Herbicidal ratio of 40% or more and less than 70%),4 (Herbicidal ratio of 70% or more and less than 90%),3 (Herbicidal ratio of 40% or more and less than 70%),5 (Herbicidal ratio of 90% or more (almost completely withered))
O=C(Nc1nnco1)c1ccc(C(F)(F)F)n2c(-c3ccc(F)cc3)nnc12 [1-147],5 (Herbicidal ratio of 90% or more (almost completely withered)),5 (Herbicidal ratio of 90% or more (almost completely withered)),5 (Herbicidal ratio of 90% or more (almost completely withered)),5 (Herbicidal ratio of 90% or more (almost completely withered)),3 (Herbicidal ratio of 40% or more and less than 70%),5 (Herbicidal ratio of 90% or more (almost completely withered))
CN(C)c1nnc2c(C(=O)Nc3nnco3)ccc(C(F)(F)F)n12 [1-103],4 (Herbicidal ratio of 70% or more and less than 90%),5 (Herbicidal ratio of 90% or more (almost completely withered)),4 (Herbicidal ratio of 70% or more and less than 90%),5 (Herbicidal ratio of 90% or more (almost completely withered)),5 (Herbicidal ratio of 90% or more (almost completely withered)),5 (Herbicidal ratio of 90% or more (almost completely withered))
Cn1nnnc1NC(=O)c1ccc(C(F)(F)F)n2c(C3CC3)nnc12 [2-005],5 (Herbicidal ratio of 90% or more (almost completely withered)),5 (Herbicidal ratio of 90% or more (almost completely withered)),5 (Herbicidal ratio of 90% or more (almost completely withered)),5 (Herbicidal ratio of 90% or more (almost completely withered)),4 (Herbicidal ratio of 70% or more and less than 90%),5 (Herbicidal ratio of 90% or more (almost completely withered))
COCCN(C)c1nnc2c(C(=O)Nc3nnc(C)o3)ccc(C(F)(F)F)n12 [1-129],4 (Herbicidal ratio of 70% or more and less than 90%),5 (Herbicidal ratio of 90% or more (almost completely withered)),3 (Herbicidal ratio of 40% or more and less than 70%),5 (Herbicidal ratio of 90% or more (almost completely withered)),4 (Herbicidal ratio of 70% or more and less than 90%),5 (Herbicidal ratio of 90% or more (almost completely withered))
Cn1nnnc1NC(=O)c1ccc(C(F)(F)F)n2c(C3=NOC(C)(C)C3)nnc12 [2-028],5 (Herbicidal ratio of 90% or more (almost completely withered)),5 (Herbicidal ratio of 90% or more (almost completely withered)),5 (Herbicidal ratio of 90% or more (almost completely withered)),5 (Herbicidal ratio of 90% or more (almost completely withered)),5 (Herbicidal ratio of 90% or more (almost completely withered)),5 (Herbicidal ratio of 90% or more (almost completely withered))
Cn1nnnc1NC(=O)c1ccc(C(F)(F)F)n2c(CSCC(F)(F)F)nnc12 [2-030],4 (Herbicidal ratio of 70% or more and less than 90%),5 (Herbicidal ratio of 90% or more (almost completely withered)),4 (Herbicidal ratio of 70% or more and less than 90%),5 (Herbicidal ratio of 90% or more (almost completely withered)),4 (Herbicidal ratio of 70% or more and less than 90%),4 (Herbicidal ratio of 70% or more and less than 90%)
